Source: US6936629B2, “Compounds and methods for the treatment or prevention of flavivirus infections” (ViroChem Pharma Inc., priority 2001, dated 2005)

The compounds below were run against HCV RNA-dependent RNA polymerase (NS5B protein) (Hepatitis C virus genotype 1b, UniProt P26663) (assay: In vitro HCV RNA-dependent RNA polymerase assay (Assay 1, polyA/oligo dT, 32P-UTP incorporation)). Conditions: purified recombinant HCV NS5B, homopolymeric template/primer polyA/oligo dT; read-out: RNA pol Assay1 IC50.
HCV RNA-dependent RNA polymerase (NS5B protein), sequence (P26663 2420-3010 limits assumed): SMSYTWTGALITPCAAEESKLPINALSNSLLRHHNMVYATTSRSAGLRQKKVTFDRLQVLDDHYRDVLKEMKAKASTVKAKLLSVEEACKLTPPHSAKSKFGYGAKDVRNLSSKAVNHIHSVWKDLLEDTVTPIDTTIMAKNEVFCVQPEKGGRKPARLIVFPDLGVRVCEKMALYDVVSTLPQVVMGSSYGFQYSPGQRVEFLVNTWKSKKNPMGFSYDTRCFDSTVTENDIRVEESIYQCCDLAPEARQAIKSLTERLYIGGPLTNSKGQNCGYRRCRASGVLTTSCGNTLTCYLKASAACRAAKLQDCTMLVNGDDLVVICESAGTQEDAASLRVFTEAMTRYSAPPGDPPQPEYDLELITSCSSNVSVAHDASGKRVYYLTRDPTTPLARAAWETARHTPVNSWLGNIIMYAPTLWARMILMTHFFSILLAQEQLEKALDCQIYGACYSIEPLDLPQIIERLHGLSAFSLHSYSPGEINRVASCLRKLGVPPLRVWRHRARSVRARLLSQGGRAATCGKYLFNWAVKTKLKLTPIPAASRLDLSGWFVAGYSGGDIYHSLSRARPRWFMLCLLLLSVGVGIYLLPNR
Format: biochemical
Protocol: Compounds were evaluated using an in vitro polymerase assay containing purified recombinant HCV RNA-dependent RNA polymerase (NS5B protein). HCV NS5B was expressed in insect cells using a recombinant baculovirus as vector. The experimental procedures used for the cloning, expression and purification of the HCV NS5B protein are described below. Follows, are details of the RNA-dependent RNA polymerase assays used to test the compounds.
The cDNA encoding the entire NS5B protein of HCV-Bk strain, genotype 1b, was amplified by PCR using the primers NS5Nhe5′ (5′-[…]-3′) (SEQ ID NO: 1) and XhoNS53′ (5′-[…]-3′) (SEQ ID NO: 2) and the plasmid pCD 3.8-9.4 as template (Tomei et al, 1993). NS5Nhe5′ and XhoNS53′ contain two NheI and XhoI sites (underlined sequences), respectively, at their 5′ end. The amplified DNA fragment was cloned in the bacterial expression plasmid pET-21b (Novagen) between the restriction sites NheI and XhoI, to generate the plasmid pET/NS5B. This plasmid was later used as template to […] the NS5B coding region, using the primers NS5B-H9 (5′-[…]-3′) (SEQ ID NO: 3) and NS5B-R4 (5′-[…]-3′) (SEQ ID NO: 4). NS5B-H9 spans a region of 15 nucleotides in the plasmid pET-21b followed by the translation initiation codon (ATG) and […] corresponding to the 5′ end of the NS5B coding region (nt. 7590-7607 in the HCV sequence with the accession number M58335) . NS5B-R4 contains two BamHI sites (underlined) followed by 18 nucleotides corresponding to the region around the stop codon in the HCV genome (nt. 9365-9347). The amplified sequence, of 1.8 kb, was digested with NheI and BamHI and ligated to a predigested pBlueBacII plasmid (Invitrogen) . The resulting recombinant plasmid was designated pBac/NS5B. Sf9 cells were co-transfected with 3 μg of pBac/NS5B, together with 1 μg of linearized baculovirus DNA (Invitrogen), as described in the manufacturer's protocol. Following two rounds of plaque purification, an NS5B-recombinant baculovirus, BacNS5B, was isolated. The presence of the recombinant NS5B protein was determined by western blot analysis (Harlow and Lane, 1988) of BacNS5B-infected Sf9 cells, using a rabbit polyclonal antiserum (anti-NS5B) raised against a His-tagged version of the NS5B protein expressed in E. coil. Infections of Sf9 cells with this plaque purified virus were performed in one-liter spinner flasks at a cell density of 1.2×10^6 cells/ml and a multiplicity of infection of 5.
Sf9 cells were infected as described above. Sixty hours post-infection, cells were harvested then washed twice with phosphate buffer saline (PBS). Total proteins were solubilized as described in Lohmann et al. (1997) with some modifications. In brief, proteins were extracted in three steps, S1, S2, S3, using lysis buffers (LB) I, LB II and LB III (Lohmann et al, 1997). The composition of LBII was modified to contain 0.1% triton X-100 and 150 mM NaCl to reduce the amount of solubilized NS5B protein at this step. In addition, sonication of cell extracts was avoided throughout the protocol to preserve the integrity of the protein structure.
Soluble NS5B protein in the S3 fraction was diluted to lower the NaCl concentration to 300 mM, then it incubated batchwise with DEAE sepharose beads (Amersham-Pharmacia) for 2 hrs at 4° C., as described by Behrens et al. (1996). Unbound material was cleared by centrifugation for 15 min at 4° C., at 25000 rpm using a SW41 rotor (Beckman). The supernatant was further diluted to lower the NaCl concentration to 200 mM and subsequently loaded, with a flow rate of 1 ml/min, on a 5 ml HiTrap® heparin column (Amersham-Pharmacia) connected to an FPLC® system (Amersham-Pharmacia). Bound proteins were eluted in 1 ml fractions, using a continuous NaCl gradient of 0.2 to 1 M, over a 25 ml volume. […]
Compound `Cc1ccc(C(=O)N(C)c2nc(N3CCOCC3)sc2C(=O)O)c(C)c1` [Compound #16, 4-[(2,4-DIMETHYL-BENZOYL)-METHYL-AMINO]-2-MORPHOLIN-4-YL-THIAZOLE-5-CARBOXYLIC ACID] has an IC50 of 5 to 20 µM. `Cc1ccc(S(=O)(=O)Nc2nc(-c3ccccc3)sc2C(=O)O)cc1` [Compound #10, 2-Phenyl-4-(toluene-4-sulfonylamino)-thiazole-5-carboxylic acid] showed an IC50 of over 20 µM. Compound `CC(C)N(C(=O)c1ccc(Cl)cc1Cl)c1nc(-c2ccccc2)sc1C(=O)O` [Compound #3, 4-[(2,4-Dichloro-benzoyl)-isopropyl-amino]-2-phenyl-thiazole-5-carboxylic acid] has an IC50 of under 5 µM. In the case of `CN(C(=O)c1ccc(Cl)cc1)c1nc(-c2ccccc2)sc1C(=O)O` [Compound #14, 4-[(4-Chloro-benzoyl)-methyl-amino]-2-phenyl-thiazole-5-carboxylic acid], the IC50 is reported as under 5 µM. In the case of `CN(C(=O)c1ccccc1Cl)c1nc(-c2ccccc2)sc1C(=O)O` [Compound #13, 4-[(2-Chloro-benzoyl)-methyl-amino]-2-phenyl-thiazole-5-carboxylic acid], the IC50 is reported as 5 to 20 µM. `CCN(C(=O)c1ccc(Cl)cc1Cl)c1nc(-c2ccccc2)sc1C(=O)O` [Compound #4, 4-[(2,4-Dichloro-benzoyl)-ethyl-amino]-2-phenyl-thiazole-5-carboxylic acid] was tested, and the IC50 was under 5 µM. `Cc1ccc(C(=O)Nc2nc(-c3ccccc3)sc2C(=O)O)c(C)c1` [Compound #8, 4-(2,4-Dimethyl-benzoylamino)-2-phenyl-thiazole-5-carboxylic acid] gave an IC50 of over 20 µM. Work on `Cc1ccc(C(=O)N(c2nc(-c3ccccc3)sc2C(=O)O)C(C)C)cc1` [Compound #6, 4-[Isopropyl-(4-methyl-benzoyl)-amino]-2-phenyl-thiazole-5-carboxylic acid] yielded an IC50 of under 5 µM. With `Cc1ccc(S(=O)(=O)Nc2nc(-c3ccccc3)sc2C(=O)O)c(C)c1` [Compound #9, 4-(2,4-Dimethyl-benzenesulfonylamino)-2-phenyl-thiazole-5-carboxylic acid] the IC50 was 5 to 20 µM. `O=C(Nc1nc(-c2ccccc2)sc1C(=O)O)c1ccc(Cl)cc1Cl` [Compound #11, 4-(2,4-Dichloro-benzoylamino)-2-phenyl-thiazole-5-carboxylic acid] gave an IC50 of 5 to 20 µM. `Cc1ccc(C(=O)N(C)c2nc(-c3ccccc3)sc2C(=O)O)cc1` [Compound #1, 4-[Methyl-(4-methyl-benzoyl)-amino]-2-phenyl-thiazole-5-carboxylic acid] showed an IC50 of under 5 µM. With `Cc1ccccc1S(=O)(=O)Nc1nc(-c2ccccc2)sc1C(=O)O` [Compound #5, 2-Phenyl-4-(toluene-2-sulfonylamino)-thiazole-5-carboxylic acid] the IC50 was 5 to 20 µM. In the case of `O=C(Nc1nc(-c2ccccc2)sc1C(=O)O)c1ccc(Cl)cc1` [Compound #7, 4-(4-Chloro-benzoylamino)-2-phenyl-thiazole-5-carboxylic acid], the IC50 is reported as over 20 µM. For `O=C(Nc1nc(-c2ccccc2)sc1C(=O)O)c1ccc(Cl)cc1` [Compound #15], the IC50 was 5 to 20 µM. Compound `CN(C(=O)c1ccc(Cl)cc1Cl)c1nc(-c2ccccc2)sc1C(=O)O` [Compound #2, 4-[(2,4-Dichloro-benzoyl)-methyl-amino]-2-phenyl-thiazole-5-carboxylic acid] has an IC50 of under 5 µM. `Cc1cccc(C(=O)Nc2nc(-c3ccccc3)sc2C(=O)O)c1` [Compound #12, 4-(3-Methyl-benzoylamino)-2-phenyl-thiazole-5-carboxylic acid] gave an IC50 of over 20 µM.
